Experimental data published in patent US20100120762A1, “Triazine derivatives as inhibitors of phosphodiesterases” (WYETH, priority 2008, published 2010).
Entries after “also recorded” stand apart in the source; their conditions may differ.

What was measured:
PDE10A1 (AB 020593) = target: T1, PDE10A1 (AB 020593) (Homo sapiens, UniProt Q9Y233); assay: Inhibition of recombinant PDE10A (baculovirus/SF21 system); format: biochemical; details: recombinant cytosolic PDE10A, 0.1 μM [3H]-cAMP, 37° C., 30 minutes, SPA; read-out: PDE10A IC50
T1 construct: made in house; host or cells: baculovirus / SF21 insect cells (gene synthesized by Entelechon GmbH)
T1 sequence (Q9Y233 other isoform, or with tags, fused parts or gaps): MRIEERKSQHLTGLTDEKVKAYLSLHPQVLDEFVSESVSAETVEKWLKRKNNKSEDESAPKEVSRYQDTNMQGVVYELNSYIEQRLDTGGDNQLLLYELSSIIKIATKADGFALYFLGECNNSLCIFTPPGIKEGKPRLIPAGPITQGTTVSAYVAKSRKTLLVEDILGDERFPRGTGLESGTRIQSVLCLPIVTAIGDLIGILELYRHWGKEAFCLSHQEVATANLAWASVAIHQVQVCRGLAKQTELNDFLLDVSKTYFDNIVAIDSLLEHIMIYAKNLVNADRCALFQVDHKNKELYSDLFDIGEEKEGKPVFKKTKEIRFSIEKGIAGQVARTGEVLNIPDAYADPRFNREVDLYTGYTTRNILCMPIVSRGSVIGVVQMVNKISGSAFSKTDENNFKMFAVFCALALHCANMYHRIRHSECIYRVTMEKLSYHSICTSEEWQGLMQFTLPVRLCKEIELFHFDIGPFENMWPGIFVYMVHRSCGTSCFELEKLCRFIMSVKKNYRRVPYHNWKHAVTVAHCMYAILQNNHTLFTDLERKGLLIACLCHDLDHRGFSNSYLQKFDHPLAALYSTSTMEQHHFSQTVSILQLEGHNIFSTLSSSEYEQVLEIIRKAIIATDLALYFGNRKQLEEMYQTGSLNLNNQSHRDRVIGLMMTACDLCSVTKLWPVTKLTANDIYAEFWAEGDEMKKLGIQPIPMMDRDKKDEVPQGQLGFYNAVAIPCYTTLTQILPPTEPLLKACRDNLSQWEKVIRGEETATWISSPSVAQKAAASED
Summary of the method: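 Cytosolic PDE10A1 expressed in SF21 cells via baculovirus, incubated with 0.1 μM [3H]-cAMP in 50 mM Tris-HCl/5 mM MgCl2, pH 7.4, 30 min at 37 °C. SPA-bead scintillation read-out, with enzyme-free wells as background. IC50 from Hill plot, 2-parameter model.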

PDE2A (NM002599) = target: T2, PDE2A (NM002599) (Homo sapiens, UniProt O00408); assay: Inhibition of recombinant PDE2A (expressed in baculovirus/SF21-cells); format: biochemical; details: recombinant PDE2A, 0.5 μM [3H]-cAMP, 1000 nM cGMP, 37° C., 30 minutes, SPA; read-out: PDE2A IC50
T2 construct: made in house; host or cells: baculovirus / SF21 insect cells
T2 sequence (O00408 whole entry): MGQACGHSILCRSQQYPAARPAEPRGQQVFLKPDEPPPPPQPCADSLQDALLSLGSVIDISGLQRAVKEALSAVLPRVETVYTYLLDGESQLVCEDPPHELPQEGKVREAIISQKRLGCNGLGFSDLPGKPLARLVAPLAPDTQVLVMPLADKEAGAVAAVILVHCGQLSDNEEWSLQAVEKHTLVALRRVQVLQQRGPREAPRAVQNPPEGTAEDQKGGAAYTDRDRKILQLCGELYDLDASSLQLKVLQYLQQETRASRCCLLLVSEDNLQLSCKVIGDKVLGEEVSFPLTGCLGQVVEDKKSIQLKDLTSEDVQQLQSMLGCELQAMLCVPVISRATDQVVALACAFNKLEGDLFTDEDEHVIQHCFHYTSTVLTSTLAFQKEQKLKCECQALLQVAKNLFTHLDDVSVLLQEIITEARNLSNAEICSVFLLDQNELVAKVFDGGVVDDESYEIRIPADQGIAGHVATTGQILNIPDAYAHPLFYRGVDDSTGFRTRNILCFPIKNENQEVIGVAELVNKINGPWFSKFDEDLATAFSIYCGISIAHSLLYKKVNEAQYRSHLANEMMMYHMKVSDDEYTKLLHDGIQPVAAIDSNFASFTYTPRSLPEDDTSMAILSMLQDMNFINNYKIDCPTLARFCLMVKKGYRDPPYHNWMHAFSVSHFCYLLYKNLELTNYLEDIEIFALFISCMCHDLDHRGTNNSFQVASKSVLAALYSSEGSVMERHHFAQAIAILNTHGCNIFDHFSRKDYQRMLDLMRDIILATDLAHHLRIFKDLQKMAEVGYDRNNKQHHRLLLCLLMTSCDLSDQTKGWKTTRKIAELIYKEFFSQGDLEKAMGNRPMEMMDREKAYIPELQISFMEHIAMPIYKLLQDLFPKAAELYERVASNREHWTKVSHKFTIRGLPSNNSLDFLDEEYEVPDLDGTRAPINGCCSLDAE
Summary of the method: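 Human PDE2A membrane fraction from baculovirus-infected SF21 cells; 0.5 μM [3H]-cAMP with 1000 nM cGMP as activator in 50 mM Tris-HCl/5 mM MgCl2 pH 7.4, 30 min at 37° C, SPA read-out. Non-specific activity measured without cGMP; IC50 by 2-parameter Hill fit.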

mice [1] = assay: Forced swim test; format: in vivo, mouse; details: immobility recorded during last 4 min of 6 min, FIG. 1
Experimental: The forced swim test is an established animal model of depression (Yacoubi et al., 2001). Mice which are forced to swim in a restricted area from which they cannot escape will rapidly cease attempts to escape and adopt a characteristic immobile posture which can be readily identified and timed. Immobility is taken as depression-related behaviour in the animal (Porsolt, 1979). For the test a glass cylinder (height: 20 cm, internal diameter: 15 cm) containing 11 cm water maintained at 23° C. is used. On the day of experiment the mice are forced to swim in the water for 6 min and the immobility time is recorded during the last 4 min of the 6-min-period. Afterwards animals are removed from the water, dried with a paper towel and put under infrared light. […] Results are analyzed by t-test (two groups) or one way analysis of variance (ANOVA) when several groups are compared. Tukey test is used for individual comparison. P<0.05 is regarded as significant.

mice [2] = assay: Light and dark box test; format: in vivo, mouse; details: 5 min exploration, FIG. 2
Text: The light and dark box is an established animal model of anxiety (Crawley, 1985). The light and dark box consists of two chambers (each 30×30 cm) that are connected by an opening. There is an aversive chamber with white walls that is brightly lit (600 lux) and a dark chamber with black walls that is only lit by an infrared lamp ([…]). Untreated mice predominately stay in the dark chamber whereas mice treated with an anxiolytic compound go more often into the light chamber resulting in an increased number of transitions between the boxes and increased time in the light box. In addition the distance traveled in the dark chamber is regarded as an activity-related parameter. For the experiment, mice are placed in the light box after the pre-treatment time. Recording time starts when the mouse enters the dark box for the first time. Then the animal has 5 min to explore the two chambers. The behavior of the mice is recorded by video and analyzed by VideoMot 2 (TSE systems, Germany). […] Results are analyzed by t-test (two groups) or one way analysis of variance (ANOVA) when several groups are compared. Tukey test is used for individual comparison. P<0.05 is regarded as significant.

Female Wistar-rats = assay: Novel object recognition test; format: in vivo, rat; details: MK-801 0.025 mg/kg intraperitoneally, compound given orally 30 min prior to the test session, FIG. 3
Experimental: The novel object recognition is an animal model of learning and memory (Rutten et al., 2006a, 2006b).
The novel object recognition is performed in glass aquaria (40×60×40 cm) that have 3 black walls and one transparent wall. The floor consists of black, antislip PVC. Objects of different material (iron, plastic, coated hardwood) and forms and similar size are used for the experiment. The objects are positioned 10 cm from the wall and 35-40 cm from each other. Female Wistar-rats are used for this experiment.
One day before the experiment rats have 15 min to habituate to the arena and two objects.
On the first day of the experiment rats are placed into the arena and have five min to explore two equal objects. To disturb the learning process, MK-801 at 0.025 mg/kg is administered intraperitoneally on the first day of the experiment 30 min before the test starts.
On the second day of the experiment (24 h later) rats are again placed into the arena and have 5 min to explore one of the old objects and a novel object. […]
The following parameters are recorded: • 1. the time the rats spent with each object on the first day • 2. the time the rats spent with each object on the second day • 3. percent of time rats spent with the novel object on the second day […]
Results are analyzed by t-test (two groups) or one way analysis of variance (ANOVA) when several groups are compared. […]

Row | Structure (SMILES) | IC50 (PDE10A1 (AB 020593)) [nM] | melting point [°C] | IC50 (PDE2A (NM002599)) [nM] | effect in the forced swim test (antidepressant; immobility time) (mice [1]) | effect in the light and dark box test (anxiolytic) (mice [2]) | effect in the novel object recognition test (cognition enhancing) (Female Wistar-rats)
1 | COc1ccc2nnc3c(C)nc(-c4ccccc4)n3c2n1 [Example 4, 8-methoxy-3-methyl-1-phenyl-imidazo[5,1-c]-pyrido[2,3-e][1,2,4]triazine] | 131 | 214 to 217 | 89.3 |  |  | 
2 | COc1ccc2nnc3c(C)ncn3c2n1 [Example 5, 8-methoxy-3-methyl-imidazo[5,1-c]-pyrido[2,3-e][1,2,4]triazine] | > 1000 | 213 to 214 | > 10000 |  |  | 
3 | COc1ccc2nnc3c(C)nc(-c4ccccc4Cl)n3c2n1 [Example 6, 1-(2-chlorophenyl)-8-methoxy-3-methyl-imidazo[5,1-c]-pyrido[2,3-e][1,2,4]triazine] | 20.9 |  | 3.83 | antidepressant effect; also recorded: significant effect | anxiolytic effect; also recorded: significant effect | significant effect
4 | COc1ccc2nnc3cnc(C(C)C)n3c2n1 [Example 7, 1-isopropyl-8-methoxy-imidazo[5,1-c]-pyrido[2,3-e][1,2,4]triazine] | 2890 | 159 to 162 | 2980 |  |  | 
5 | COc1ccc2nnc3cnc(-c4ccccc4Cl)n3c2n1 [Example 8, 1-(2-chlorophenyl)-8-methoxy-imidazo[5,1-c]pyrido[2,3-e][1,2,4]triazine] | 454 | 190 to 193 | 96.5 |  |  | 
6 | COc1ccc2nnc3c(C)nc(-c4ccccn4)n3c2n1 [Example 10, 8-methoxy-3-methyl-1-(2-pyridyl)-imidazo[5,1-c]-pyrido[2,3-e][1,2,4]triazine] | 3810 | 216 to 220 | 2200 |  |  | 
7 | COc1ccc2nnc3c(C)nc(C4CCCCC4)n3c2n1 [Example 11, 8-methoxy-3-methyl-1-(cyclohexyl)-imidazo[5,1-c]-pyrido[2,3-e][1,2,4]triazine] | 41.4 | 174 to 177 | 56.3 |  |  | 
8 | CCC(C)c1nc(C)c2nnc3ccc(OC)nc3n12 (centres unmarked) [Example 12, 8-methoxy-3-methyl-1-(sec-butyl)-imidazo[5,1-c]-pyrido[2,3-e][1,2,4]triazine] | 94.8 | 157 to 159 | 136 |  |  | 
9 | COc1ccc2nnc3c(C)nc(CC(C)C)n3c2n1 [Example 13, 8-methoxy-3-methyl-1-(iso-butyl)-imidazo[5,1-c]-pyrido[2,3-e][1,2,4]triazine] | 12.9 | 143.5 to 145 | 30.3 |  |  | 
10 | Cc1nc(-c2cc(Cl)ccc2Cl)n2c1nnc1ccc(Cl)nc12 [Example 118, 8-chloro-1-(2,5-dichloro-phenyl)-3-methyl-imidazo[5,1-c]pyrido[2,3-e][1,2,4]triazine] | 228 | 151 to 154 | 11.8 |  |  | 
11 | Cc1cn(-c2ccc3nnc4c(C)nc(-c5cc(Cl)ccc5Cl)n4c3n2)c(-c2cc(Cl)ccc2Cl)n1 [Example 119, 1-(2,5-dichloro-phenyl)-8-[2-(2,5-dichloro-phenyl)-4-methyl-imidazol-1-yl]-3-methyl-imidazo[5,1-c]pyrido[2,3-e][1,2,4]triazine] | 240 | 130 | 41 |  |  | 
12 | COc1ccc2nnc3c(C4CC4)nc(-c4cccc(Cl)c4)n3c2n1 [Example 121, 1-(3-Chloro-phenyl)-3-cyclopropyl-8-methoxy-imidazo[5,1-c]pyrido[2,3-e][1,2,4]triazine] | > 500 | 155 | 136 |  |  | 
13 | COc1ccc2nnc3c(C4CC4)nc(-c4ccccn4)n3c2n1 [Example 122, 3-Cyclopropyl-8-methoxy-1-pyridin-2-yl-imidazo[5,1-c]pyrido[2,3-e][1,2,4]triazine] | 8100 | 162 to 164 | 5190 |  |  | 
14 | Cc1nc(-c2ccccc2Cl)n2c1nnc1ccc(N3CCOCC3)nc12 [Example 123, 1-(2-Chloro-phenyl)-3-methyl-8-morpholin-4-yl-imidazo[5,1-c]pyrido[2,3-e][1,2,4]triazine] | 15.7 | 251 to 254 | 5.13 |  |  | 
15 | COc1ccc2nnc3c(-c4ccccc4)ncn3c2n1 [Example 124, 8-Methoxy-3-phenyl-imidazo[5,1-c]pyrido[2,3-e][1,2,4]triazine] | > 500 | 225 to 227 | > 500 |  |  | 
16 | c1ccc(-c2ncn3c2nnc2cccnc23)cc1 [Example 125, 3-phenyl-imidazo[5,1-c]pyrido[2,3-e][1,2,4]triazine] | > 1000 | 225 to 227 | > 1000 |  |  | 
